In the NIST ThermoML archive (doi:10.1021/je050367p):

Legend:
[1] = xn = mol fraction of the nth substance listed; conditions: 100.5 kPa, Liquid; for viscosity: Capillary tube (Ostwald / Ubbelohde) method
[2] = refractive index (Na D-line) (dimensionless); xn = mol fraction of the nth substance listed; conditions: 100.8 kPa, Liquid, Standard Abbe refractometry

CC(C)OC(C)C [diisopropyl ether] + CCO
Conditions | mass density, 288.15 K [kg/m3] | mass density, 298.15 K [kg/m3] | mass density, 308.15 K [kg/m3] | refractive index, 288.15 K | refractive index, 298.15 K | refractive index, 308.15 K | viscosity, 288.15 K [mPa·s] | viscosity, 298.15 K [mPa·s] | viscosity, 308.15 K [mPa·s]
[1], x1 = 0.05 | 788.65 | 779.96 | 771.13 | – | – | – | 1.176 | 0.975 | 0.814
[1], x1 = 0.1 | 783.6 | 774.78 | 765.84 | – | – | – | 1.046 | 0.875 | 0.736
[1], x1 = 0.15 | 779.02 | 770.05 | 760.98 | – | – | – | 0.946 | 0.793 | 0.67
[1], x1 = 0.2 | 774.89 | 765.79 | 756.58 | – | – | – | 0.85 | 0.719 | 0.612
[1], x1 = 0.25 | 770.69 | 761.45 | 752.16 | – | – | – | 0.771 | 0.656 | 0.562
[1], x1 = 0.3 | 766.92 | 757.63 | 748.12 | – | – | – | 0.705 | 0.603 | 0.52
[1], x1 = 0.35 | 763.36 | 753.93 | 744.32 | – | – | – | 0.648 | 0.558 | 0.484
[1], x1 = 0.4 | 760.02 | 750.47 | 740.76 | – | – | – | 0.599 | 0.519 | 0.453
[1], x1 = 0.45 | 756.93 | 747.28 | 737.5 | – | – | – | 0.558 | 0.486 | 0.426
[1], x1 = 0.5 | 753.87 | 744.13 | 734.3 | – | – | – | 0.523 | 0.458 | 0.403
[1], x1 = 0.55 | 750.98 | 741.18 | 731.25 | – | – | – | 0.493 | 0.432 | 0.383
[1], x1 = 0.6 | 748.29 | 738.39 | 728.37 | – | – | – | 0.468 | 0.412 | 0.365
[1], x1 = 0.65 | 745.73 | 735.73 | 725.59 | – | – | – | 0.444 | 0.392 | 0.35
[1], x1 = 0.7 | 743.19 | 733.1 | 722.86 | – | – | – | 0.423 | 0.376 | 0.336
[1], x1 = 0.7499 | 740.73 | 730.59 | 720.23 | – | – | – | 0.407 | 0.362 | 0.324
[1], x1 = 0.8 | 738.4 | 728.19 | 717.79 | – | – | – | 0.392 | 0.35 | 0.314
[1], x1 = 0.85 | 735.94 | 725.76 | 715.31 | – | – | – | 0.378 | 0.339 | 0.305
[1], x1 = 0.9 | 733.6 | 723.36 | 712.89 | – | – | – | 0.367 | 0.329 | 0.297
[1], x1 = 0.95 | 731.15 | 720.98 | 710.53 | – | – | – | 0.357 | 0.32 | 0.289
[1], x1 = 1 | 729.09 | 718.7 | 708.12 | – | – | – | 0.348 | 0.313 | 0.283
[2], x1 = 0.05 | – | – | – | 1.36501 | 1.36077 | 1.35646 | – | – | –
[2], x1 = 0.1 | – | – | – | 1.36653 | 1.3621 | 1.35763 | – | – | –
[2], x1 = 0.15 | – | – | – | 1.36768 | 1.3631 | 1.3585 | – | – | –
[2], x1 = 0.2 | – | – | – | 1.3686 | 1.36392 | 1.35923 | – | – | –
[2], x1 = 0.25 | – | – | – | 1.36935 | 1.36456 | 1.35977 | – | – | –
[2], x1 = 0.3 | – | – | – | 1.36998 | 1.3651 | 1.36021 | – | – | –
[2], x1 = 0.35 | – | – | – | 1.37047 | 1.3655 | 1.36052 | – | – | –
[2], x1 = 0.4 | – | – | – | 1.37086 | 1.36582 | 1.36077 | – | – | –
[2], x1 = 0.45 | – | – | – | 1.37117 | 1.36608 | 1.36093 | – | – | –
[2], x1 = 0.5 | – | – | – | 1.3714 | 1.3663 | 1.36103 | – | – | –
[2], x1 = 0.55 | – | – | – | 1.37159 | 1.36642 | 1.36107 | – | – | –
[2], x1 = 0.6 | – | – | – | 1.37174 | 1.36648 | 1.36109 | – | – | –
[2], x1 = 0.65 | – | – | – | 1.37183 | 1.36649 | 1.36108 | – | – | –
[2], x1 = 0.7 | – | – | – | 1.37187 | 1.36646 | 1.36098 | – | – | –
[2], x1 = 0.7499 | – | – | – | 1.37187 | 1.36638 | 1.36085 | – | – | –
[2], x1 = 0.8 | – | – | – | 1.37181 | 1.36627 | 1.36068 | – | – | –
[2], x1 = 0.85 | – | – | – | 1.37167 | 1.36611 | 1.36044 | – | – | –
[2], x1 = 0.9 | – | – | – | 1.3715 | 1.36588 | 1.36019 | – | – | –
[2], x1 = 0.95 | – | – | – | 1.3712 | 1.36558 | 1.35986 | – | – | –
[2], x1 = 1 | – | – | – | 1.37093 | 1.36524 | 1.35944 | – | – | –
